# Laboratory results published in patent US6888015B2, “Sphingolipid synthesis inhibitor” (Japan Science and Technology Agency, priority 2001, dated 2005).
# System: conversion of Cer to SM in intact cells
# Experiment: Conversion of [3H]Cer to [3H]SM in intact cells ([3H]sphingosine pulse-chase)
# Type: cell-based, Chinese hamster
# Details: 1 μM; chase at 33° C. up to 1 hour with fumonisin B1
# Procedure: The measurement of conversion of [^3H] Cer to [^3H] SM in cells is performed by a modified method of the method disclosed in Document 1. That is, as the first step, cells are pulse-labeled in 1.5 mL of Nutridoma medium containing 1 μM D-erythro-[^3H] sphingosine (2.5 μCi). After washed, the cells are incubated in 1.5 mL of Nutridoma medium supplemented with or without 1 μM HPA-12 at 4° C. for 15 minutes, then incubated under the presence of 100 μM fumonisin B, at 33° C. for various periods of time for chase.
# The lipids are extracted from the chased cells, and separated by TLC with a developing solvent consisting of chloroform/methanol/H2O (volume ratio, 65:25:4). Then, the radioactivity of each lipid is measured by the method mentioned above.
# To examine the inhibitory effect of HPA-12 on the step of Cer-to-SM conversion specifically, metabolic labeling experiments with [^3H] sphingosine are carried out. When cells are labelled with [^3H] sphingosine at 15° C., [^3H] sphingosine is effectively N-acylated and converted to [^3H] Cer, but, [^3H] Cer is not converted to [^3H] SM at this temperature (Document 2). After the labeling with [^3H] sphingosine at low temperature to generate [^3H] Cer, the cells are treated with 1 μM HPA-12 at 4° C. for 15 minutes, and then incubated at 33° C. up to 1 hour for chase. During the chase, de novo synthesis of [^3H] […]
structure (smiles),measurement,value
"CCCCCCCCCCCC(=O)NC(CO)CC(O)c1ccccc1 (centres unmarked) [HPA-12, N-(3-hydroxy-1-hydroxymethyl-3-phenylprol)dodecaneamide]",formation of [3H]GlcCer,does not inhibit and rather increases
same,inhibition of formation of [3H]SM,50%
